Here are results for 15 compounds from patent US20090029996A1, “Pyridazin-3(2H)-One Derivatives And Their Use As Pde4 Inhibitors” (priority 2004, published 2009).

pIC50: −log10 of the molar value.

The experiment deals with PDE4 (Homo sapiens, UniProt Q07343). Briefly: PDE4 Assay Procedure ([3H]-cAMP SPA). It counts as biochemical. To be noted: 15 nM [3H]-cAMP, 1 hour at room temperature, SPA beads; read-out: HPDE4B or IC50 PDE4. On the procedure: Compounds to be tested were resuspended in DMSO at a stock concentration of 1 mM. […] These dilutions were done in 96-well plates. In some cases, plates containing diluted compounds were frozen before being assayed. In these cases, the plates were thawed at room temperature and stirred for 15 minutes.
PDE4, sequence (Q07343 324-700 limits assumed): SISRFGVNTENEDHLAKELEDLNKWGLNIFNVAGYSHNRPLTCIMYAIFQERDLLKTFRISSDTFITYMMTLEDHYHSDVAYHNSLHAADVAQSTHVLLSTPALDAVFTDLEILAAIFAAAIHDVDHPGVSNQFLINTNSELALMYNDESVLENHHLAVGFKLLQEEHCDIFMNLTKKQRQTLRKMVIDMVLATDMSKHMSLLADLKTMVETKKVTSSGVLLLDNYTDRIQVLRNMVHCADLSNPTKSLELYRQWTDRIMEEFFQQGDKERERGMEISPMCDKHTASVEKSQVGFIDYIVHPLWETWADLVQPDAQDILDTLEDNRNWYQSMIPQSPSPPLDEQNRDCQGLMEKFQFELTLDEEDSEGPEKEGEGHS
Ten microliters of the diluted compounds were poured into a “low binding” assay plate. […] The reaction was initiated by adding ten microliters of a solution containing PDE4. The plate was then incubated under stirring for 1 hour at room temperature. After incubation the reaction was stopped with 50 microlitres of SPA beads, and the reaction was allowed to incubate for another 20 minutes at room temperature before measuring radioactivity using standard instrumentation.
The reaction mixture was prepared by adding 90 ml of H2O to 10 ml of 10× assay buffer (500 mM Tris pH 7.5, 83 mM MgCl2, 17 mM EGTA), and 40 microlitres 1 μCi/μL [3H]-cAMP. SPA beads solution was prepared by adding 500 mg to […] H2O for a final concentration of 20 mg/ml beads and 18 mM zinc sulphate.
For the compound `CCn1nc(-c2ccccc2)c(C(=O)OCOC(=O)C(C)(C)C)c(Nc2cncc3ccccc23)c1=O` [Example 31, [(2,2-Dimethylpropanoyl)oxy]methyl 1-ethyl-5-(isoquinolin-4-ylamino)-6-oxo-3-phenyl-1,6-dihydropyridazine-4-carboxylate], the pIC50 is 10.15.

As to `CCn1nc(-c2ccccc2)c(C(=O)OCOC(=O)C(C)(C)C)c(Nc2cccnc2)c1=O` [Example 23, [(2,2-Dimethylpropanoyl)oxy]methyl 1-ethyl-6-oxo-3-phenyl-5-(pyridin-3-ylamino)-1,6-dihydropyridazine-4-carboxylate], the pIC50 was 9.03.

On to `CCn1nc(-c2ccc(C)cc2)c(C(=O)OCOC(=O)C(C)(C)C)c(Nc2cccnc2)c1=O` [Example 68, [(2,2-Dimethylpropanoyl)oxy]methyl 1-ethyl-3-(4-methylphenyl)-6-oxo-5-(pyridin-3-ylamino)-1,6-dihydropyridazine-4-carboxylate], for which the pIC50 is 8.24.

Turning to `CCn1nc(-c2ccccc2)c(C(=O)OCc2oc(=O)oc2C)c(Nc2cnccc2C)c1=O` [Example 142, (5-Methyl-2-oxo-1,3-dioxol-4-yl)methyl 1-ethyl-5-[(4-methylpyridin-3-yl)amino]-6-oxo-3-phenyl-1,6-dihydropyridazine-4-carboxylate], the negative-log IC50 (pIC50) is 8.92.

Consider `CCn1nc(-c2ccccc2)c(C(=O)OCC(=O)OCc2ccccc2)c(Nc2cccnc2)c1=O` [Example 16, 2-(Benzyloxy)-2-oxoethyl 1-ethyl-6-oxo-3-phenyl-5-(pyridin-3-ylamino)-1,6-dihydropyridazine-4-carboxylate], for which the pIC50 is 9.66.

For `CCOC(=O)COC(=O)c1c(-c2ccsc2)nn(CC)c(=O)c1Nc1cnccc1C` [Example 122, 2-Ethoxy-2-oxoethyl 1-ethyl-5-[(4-methylpyridin-3-yl)amino]-6-oxo-3-(3-thienyl)-1,6-dihydropyridazine-4-carboxylate], the negative-log IC50 (pIC50) is 8.47.

In the case of `CCCC(=O)OCOC(=O)c1c(-c2ccccc2)nn(CC)c(=O)c1Nc1cccnc1` [Example 17, (Butyryloxy)methyl 1-ethyl-6-oxo-3-phenyl-5-(pyridin-3-ylamino)-1,6-dihydropyridazine-4-carboxylate], the pIC50 was 8.44.

On to `CCn1nc(-c2ccccc2)c(C(=O)OCCl)c(Nc2cncc3ccccc23)c1=O` [Example 164, Chloromethyl 1-ethyl-5-(isoquinolin-4-ylamino)-6-oxo-3-phenyl-1,6-dihydropyridazine-4-carboxylate], for which the negative logarithm of the IC50 (pIC50) is 10.00.

With `CCn1nc(-c2cccc(C)c2)c(C(=O)OCOC(=O)C(C)(C)C)c(Nc2cccnc2)c1=O` [Example 35, [(2,2-Dimethylpropanoyl)oxy]methyl 1-ethyl-3-(3-methylphenyl)-6-oxo-5-(pyridin-3-ylamino)-1,6-dihydropyridazine-4-carboxylate], the negative-log IC50 (pIC50) is 8.66.

Turning to `CCn1nc(-c2ccccc2)c(C(=O)OC(C)OC(=O)OC2CCCCC2)c(Nc2cccnc2)c1=O` (single isomer, unassigned; (-)) [Example 132, (−)-1-{[(Cyclohexyloxy)carbonyl]oxy}ethyl 1-ethyl-6-oxo-3-phenyl-5-(pyridin-3-ylamino)-1,6-dihydropyridazine-4-carboxylate], the negative logarithm of the IC50 (pIC50) is 9.52.

On to `CCOC(=O)OC(C)OC(=O)c1c(-c2ccccc2)nn(CC)c(=O)c1Nc1cnccc1C` (stereo not drawn) [Example 27, 1-[(Ethoxycarbonyl)oxy]ethyl 1-ethyl-5-[(4-methylpyridin-3-yl)amino]-6-oxo-3-phenyl-1,6-dihydropyridazine-4-carboxylate], for which the negative logarithm of the IC50 (pIC50) is 8.04.

For `CCn1nc(-c2ccccc2)c(C(=O)OC2OC(=O)c3ccccc32)c(Nc2cccnc2)c1=O` (stereo not drawn) [Example 18, 3-Oxo-1,3-dihydro-2-benzofuran-1-yl 1-ethyl-6-oxo-3-phenyl-5-(pyridin-3-ylamino)-1,6-dihydropyridazine-4-carboxylate], the pIC50 is 8.68.

On to `CCn1nc(-c2ccccc2)c(C(=O)OC(C)OC(=O)OC2CCCCC2)c(Nc2cnccc2C)c1=O` (stereo not drawn) [Example 76, 1-{[(Cyclohexyloxy)carbonyl]oxy}ethyl 1-ethyl-5-[(4-methylpyridin-3-yl)amino]-6-oxo-3-phenyl-1,6-dihydropyridazine-4-carboxylate], for which the pIC50 was 8.34.

For `CCn1nc(-c2ccccc2)c(C(=O)OCOC(C)=O)c(Nc2cccnc2)c1=O` [Example 19, (Acetyloxy)methyl 1-ethyl-6-oxo-3-phenyl-5-(pyridin-3-ylamino)-1,6-dihydropyridazine-4-carboxylate], the pIC50 was 7.96.

Turning to `CCn1nc(-c2ccccc2)c(C(=O)OCOC(=O)C(C)(C)C)c(Nc2cnccc2C)c1=O` [Example 26, [(2,2-dimethylpropanoyl)oxy]methyl 1-ethyl-5-[(4-methylpyridin-3-yl)amino]-6-oxo-3-phenyl-1,6-dihydropyridazine-4-carboxylate], the pIC50 was 8.64.

As a reminder, the pIC50 is the negative decadic logarithm of the IC50, by convention in mol/L.
